Measured values from ChEMBL document CHEMBL5346912, “Discovery of 3,5-diaryl-1H-pyrazol-based ureas as potent RET inhibitors” (Eur J Med Chem, 2023).
One block for each molecule: values may come before it. The source made the active and inactive calls. The rule behind the calls is not given here.

Tests used:
[1] = molecular target: T1, Proto-oncogene tyrosine-protein kinase receptor Ret (Homo sapiens, UniProt P07949); assay: Binding affinity to RET (unknown origin) assessed as dissociation constant in presence of ATP by FRET based Z'-Lyte assay
T1 sequence (P07949 whole entry): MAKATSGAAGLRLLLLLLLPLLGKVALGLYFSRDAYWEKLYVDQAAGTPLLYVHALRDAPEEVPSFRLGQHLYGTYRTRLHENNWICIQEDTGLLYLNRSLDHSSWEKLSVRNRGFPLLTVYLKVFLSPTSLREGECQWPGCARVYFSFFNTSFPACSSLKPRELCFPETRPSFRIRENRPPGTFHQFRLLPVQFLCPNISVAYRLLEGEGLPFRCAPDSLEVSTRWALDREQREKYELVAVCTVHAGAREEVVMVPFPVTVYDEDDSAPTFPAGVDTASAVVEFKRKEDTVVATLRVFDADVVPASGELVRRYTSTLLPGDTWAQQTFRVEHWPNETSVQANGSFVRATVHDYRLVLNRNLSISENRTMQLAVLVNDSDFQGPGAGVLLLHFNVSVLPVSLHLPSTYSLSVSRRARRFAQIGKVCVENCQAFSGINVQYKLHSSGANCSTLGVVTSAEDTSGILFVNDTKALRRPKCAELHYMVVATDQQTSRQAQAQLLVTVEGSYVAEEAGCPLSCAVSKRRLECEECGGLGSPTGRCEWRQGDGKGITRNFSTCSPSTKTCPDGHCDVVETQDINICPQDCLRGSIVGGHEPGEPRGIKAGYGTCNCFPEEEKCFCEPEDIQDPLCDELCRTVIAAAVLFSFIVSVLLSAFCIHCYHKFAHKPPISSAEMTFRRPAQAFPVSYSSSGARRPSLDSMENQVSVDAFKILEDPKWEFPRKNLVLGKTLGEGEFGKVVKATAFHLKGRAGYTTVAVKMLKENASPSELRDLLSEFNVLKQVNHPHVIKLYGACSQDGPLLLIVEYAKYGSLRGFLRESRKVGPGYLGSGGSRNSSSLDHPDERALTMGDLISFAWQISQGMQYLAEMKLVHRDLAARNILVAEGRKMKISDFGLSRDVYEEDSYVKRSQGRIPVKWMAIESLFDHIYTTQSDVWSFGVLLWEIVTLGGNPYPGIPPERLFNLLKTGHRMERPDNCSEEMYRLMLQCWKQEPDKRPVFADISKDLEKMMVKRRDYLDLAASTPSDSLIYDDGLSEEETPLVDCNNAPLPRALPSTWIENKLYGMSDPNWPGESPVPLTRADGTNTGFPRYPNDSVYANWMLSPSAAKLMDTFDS

BaF3 [2] = assay: Antiproliferative activity against mouse BaF3 cells expressing CCDC6-RET incubated for 72 hrs by CCK8 assay; type: functional, cell-based; conditions: BaF3, 72 h
BaF3 [3] = assay: Antiproliferative activity against mouse BaF3 cells expressing CCDC6-RET-V804M incubated for 72 hrs by CCK8 assay; type: functional, cell-based; conditions: BaF3, 72 h
BaF3 [4] = assay: Antiproliferative activity against mouse BaF3 cells expressing CCDC6-RET-G810C incubated for 72 hrs by CCK8 assay; type: functional, cell-based; conditions: BaF3, 72 h
BaF3 [5] = assay: Antiproliferative activity against mouse BaF3 cells expressing CCDC6-RET-G810R incubated for 72 hrs by CCK8 assay; type: functional, cell-based; conditions: BaF3, 72 h
[6] = molecular target: T1, Proto-oncogene tyrosine-protein kinase receptor Ret; assay: Inhibition of RET (unknown origin) by DiscoverX KINOMEscan assay
[7] = molecular target: Proto-oncogene tyrosine-protein kinase receptor Ret (Homo sapiens, UniProt P07949, V804M); assay: Inhibition of RET V804M mutant (unknown origin) by DiscoverX KINOMEscan assay
[8] = molecular target: Macrophage colony-stimulating factor 1 receptor (Homo sapiens, UniProt P07333); assay: Inhibition of CSF1R (unknown origin) by DiscoverX KINOMEscan assay
Sequence of Macrophage colony-stimulating factor 1 receptor (P07333 whole entry, the tested form may be a part): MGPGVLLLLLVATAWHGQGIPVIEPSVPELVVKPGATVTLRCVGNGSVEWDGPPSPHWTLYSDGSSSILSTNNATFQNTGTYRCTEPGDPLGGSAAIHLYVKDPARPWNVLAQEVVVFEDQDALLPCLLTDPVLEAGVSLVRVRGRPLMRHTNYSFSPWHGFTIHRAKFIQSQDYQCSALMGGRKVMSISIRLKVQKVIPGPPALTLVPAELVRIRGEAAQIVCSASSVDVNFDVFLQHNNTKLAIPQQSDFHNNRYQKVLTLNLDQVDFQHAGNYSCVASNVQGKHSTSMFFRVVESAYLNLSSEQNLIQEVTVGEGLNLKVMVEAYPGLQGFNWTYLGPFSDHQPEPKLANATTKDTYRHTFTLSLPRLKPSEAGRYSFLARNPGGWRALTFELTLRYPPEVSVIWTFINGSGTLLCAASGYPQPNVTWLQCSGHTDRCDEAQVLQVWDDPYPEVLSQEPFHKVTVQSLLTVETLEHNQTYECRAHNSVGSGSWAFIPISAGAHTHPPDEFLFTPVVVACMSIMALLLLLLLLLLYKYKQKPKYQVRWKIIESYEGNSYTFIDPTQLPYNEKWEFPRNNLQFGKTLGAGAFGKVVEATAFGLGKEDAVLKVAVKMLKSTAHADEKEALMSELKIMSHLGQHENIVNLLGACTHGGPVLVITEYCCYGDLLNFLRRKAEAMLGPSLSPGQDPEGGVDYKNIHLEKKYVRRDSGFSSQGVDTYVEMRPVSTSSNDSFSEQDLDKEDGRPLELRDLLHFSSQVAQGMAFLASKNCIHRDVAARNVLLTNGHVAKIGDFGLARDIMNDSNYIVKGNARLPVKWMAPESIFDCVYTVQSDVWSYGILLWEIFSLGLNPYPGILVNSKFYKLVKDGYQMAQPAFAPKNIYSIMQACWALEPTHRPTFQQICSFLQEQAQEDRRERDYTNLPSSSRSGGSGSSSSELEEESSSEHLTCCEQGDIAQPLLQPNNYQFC

[9] = molecular target: Epithelial discoidin domain-containing receptor 1 (Homo sapiens, UniProt Q08345); assay: Inhibition of DDR1 (unknown origin) by DiscoverX KINOMEscan assay
Sequence of Epithelial discoidin domain-containing receptor 1 (Q08345 whole entry, the tested form may be a part): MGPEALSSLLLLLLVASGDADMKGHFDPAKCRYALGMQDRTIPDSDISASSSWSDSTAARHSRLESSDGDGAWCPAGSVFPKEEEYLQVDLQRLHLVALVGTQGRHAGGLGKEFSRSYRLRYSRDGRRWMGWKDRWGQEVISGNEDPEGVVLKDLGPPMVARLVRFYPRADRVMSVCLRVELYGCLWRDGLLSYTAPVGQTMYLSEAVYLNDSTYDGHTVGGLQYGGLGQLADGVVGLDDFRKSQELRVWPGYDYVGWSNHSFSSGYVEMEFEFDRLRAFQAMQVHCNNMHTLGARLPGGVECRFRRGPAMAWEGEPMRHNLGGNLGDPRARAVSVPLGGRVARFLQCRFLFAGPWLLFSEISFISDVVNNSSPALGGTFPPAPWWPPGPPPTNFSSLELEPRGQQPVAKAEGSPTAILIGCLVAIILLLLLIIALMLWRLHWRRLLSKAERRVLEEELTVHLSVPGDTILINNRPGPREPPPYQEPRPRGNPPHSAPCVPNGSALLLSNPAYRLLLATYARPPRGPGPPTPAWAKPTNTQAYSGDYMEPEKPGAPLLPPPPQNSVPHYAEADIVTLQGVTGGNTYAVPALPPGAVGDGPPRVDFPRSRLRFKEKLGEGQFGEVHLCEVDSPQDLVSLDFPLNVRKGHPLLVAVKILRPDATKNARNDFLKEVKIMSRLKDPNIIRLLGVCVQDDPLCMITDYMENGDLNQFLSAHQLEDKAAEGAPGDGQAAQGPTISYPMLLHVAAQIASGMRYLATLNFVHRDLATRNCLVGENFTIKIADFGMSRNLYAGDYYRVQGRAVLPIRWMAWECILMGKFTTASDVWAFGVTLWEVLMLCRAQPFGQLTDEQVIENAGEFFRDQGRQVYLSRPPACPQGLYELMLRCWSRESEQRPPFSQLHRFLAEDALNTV

[10] = molecular target: Mast/stem cell growth factor receptor Kit (Homo sapiens, UniProt P10721); assay: Inhibition of KIT (unknown origin) by DiscoverX KINOMEscan assay
Sequence of Mast/stem cell growth factor receptor Kit (P10721 whole entry): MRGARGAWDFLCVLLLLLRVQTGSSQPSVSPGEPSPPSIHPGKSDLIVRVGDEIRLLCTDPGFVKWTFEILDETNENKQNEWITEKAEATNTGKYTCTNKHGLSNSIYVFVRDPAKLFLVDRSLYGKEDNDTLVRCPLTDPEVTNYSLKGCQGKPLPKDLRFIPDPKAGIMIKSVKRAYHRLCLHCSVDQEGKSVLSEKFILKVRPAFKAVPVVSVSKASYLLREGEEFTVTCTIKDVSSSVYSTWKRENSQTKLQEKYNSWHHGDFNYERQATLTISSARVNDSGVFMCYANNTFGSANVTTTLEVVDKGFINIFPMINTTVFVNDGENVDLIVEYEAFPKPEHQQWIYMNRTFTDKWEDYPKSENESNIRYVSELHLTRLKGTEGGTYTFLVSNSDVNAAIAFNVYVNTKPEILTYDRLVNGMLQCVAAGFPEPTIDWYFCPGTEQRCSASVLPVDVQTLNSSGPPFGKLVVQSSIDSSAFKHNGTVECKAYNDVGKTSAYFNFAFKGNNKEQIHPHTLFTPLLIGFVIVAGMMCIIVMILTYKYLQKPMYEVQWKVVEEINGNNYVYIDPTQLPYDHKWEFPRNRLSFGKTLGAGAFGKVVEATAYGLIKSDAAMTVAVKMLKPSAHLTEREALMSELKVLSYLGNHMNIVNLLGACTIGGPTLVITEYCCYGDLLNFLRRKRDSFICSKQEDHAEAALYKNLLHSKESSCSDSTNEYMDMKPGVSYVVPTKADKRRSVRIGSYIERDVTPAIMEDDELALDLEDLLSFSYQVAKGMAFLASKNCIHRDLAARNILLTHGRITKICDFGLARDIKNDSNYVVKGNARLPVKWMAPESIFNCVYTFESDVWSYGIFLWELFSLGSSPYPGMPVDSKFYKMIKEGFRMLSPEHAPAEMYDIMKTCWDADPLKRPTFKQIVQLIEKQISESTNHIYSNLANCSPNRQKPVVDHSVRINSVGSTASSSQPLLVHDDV

[11] = molecular target: Platelet-derived growth factor receptor beta (Homo sapiens, UniProt P09619); assay: Inhibition of PDGFRB (unknown origin) by DiscoverX KINOMEscan assay
[12] = molecular target: Vascular endothelial growth factor receptor 2 (Homo sapiens, UniProt P35968); assay: Inhibition of VEGFR2 (unknown origin) by DiscoverX KINOMEscan assay
[13] = molecular target: Epidermal growth factor receptor (Homo sapiens, UniProt P00533); assay: Inhibition of EGFR (unknown origin) by DiscoverX KINOMEscan assay
[14] = molecular target: Proto-oncogene tyrosine-protein kinase receptor Ret (Mus musculus) (UniProt P35546); assay: Inhibition of RET signalling pathway in mouse BaF3 cells harboring CCDC6-RET assessed as suppression of RET phosphorylation at 33.3 nM incubated for 4 hrs by Western blot analysis; type: cell-based
Sequence of Proto-oncogene tyrosine-protein kinase receptor Ret (Mus musculus) (P35546 whole entry): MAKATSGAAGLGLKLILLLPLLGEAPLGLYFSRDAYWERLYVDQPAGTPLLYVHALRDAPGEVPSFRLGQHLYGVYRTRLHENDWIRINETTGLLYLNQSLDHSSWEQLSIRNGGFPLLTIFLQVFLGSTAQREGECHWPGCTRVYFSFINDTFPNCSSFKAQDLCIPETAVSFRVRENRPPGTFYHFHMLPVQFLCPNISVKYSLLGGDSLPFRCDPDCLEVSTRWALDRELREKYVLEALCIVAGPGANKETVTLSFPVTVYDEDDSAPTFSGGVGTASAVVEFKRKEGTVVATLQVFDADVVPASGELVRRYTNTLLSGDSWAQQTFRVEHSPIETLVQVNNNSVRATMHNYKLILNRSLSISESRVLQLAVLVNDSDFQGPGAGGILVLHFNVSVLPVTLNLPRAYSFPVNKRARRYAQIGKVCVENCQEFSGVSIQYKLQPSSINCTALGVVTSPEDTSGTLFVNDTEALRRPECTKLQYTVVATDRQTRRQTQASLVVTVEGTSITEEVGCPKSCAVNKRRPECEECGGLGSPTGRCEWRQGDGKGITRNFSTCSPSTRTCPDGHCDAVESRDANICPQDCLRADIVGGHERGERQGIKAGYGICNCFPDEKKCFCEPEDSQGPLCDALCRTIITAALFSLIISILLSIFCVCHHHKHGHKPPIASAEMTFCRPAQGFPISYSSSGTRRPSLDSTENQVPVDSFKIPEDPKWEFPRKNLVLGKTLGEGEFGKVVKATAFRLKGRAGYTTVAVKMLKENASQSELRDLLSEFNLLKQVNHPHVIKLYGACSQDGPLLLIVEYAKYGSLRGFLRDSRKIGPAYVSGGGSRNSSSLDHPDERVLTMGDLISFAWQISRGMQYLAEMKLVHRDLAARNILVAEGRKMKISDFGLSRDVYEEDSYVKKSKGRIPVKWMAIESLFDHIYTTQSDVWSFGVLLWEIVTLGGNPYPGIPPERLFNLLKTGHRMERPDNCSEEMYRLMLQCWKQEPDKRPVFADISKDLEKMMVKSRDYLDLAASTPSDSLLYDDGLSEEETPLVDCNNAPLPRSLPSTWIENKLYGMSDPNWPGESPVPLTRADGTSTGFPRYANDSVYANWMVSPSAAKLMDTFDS

[15] = molecular target: Proto-oncogene tyrosine-protein kinase receptor Ret (Mus musculus) (UniProt P35546); assay: Inhibition of RET signalling pathway in mouse BaF3 cells harboring CCDC6-RET-V804M mutant assessed as suppression of RET phosphorylation at 33.3 nM incubated for 4 hrs by Western blot analysis; type: cell-based
[16] = molecular target: Proto-oncogene tyrosine-protein kinase receptor Ret (Mus musculus) (UniProt P35546); assay: Inhibition of RET signalling pathway in mouse BaF3 cells harboring CCDC6-RET-G810C mutant assessed as suppression of RET phosphorylation at 33.3 nM incubated for 4 hrs by Western blot analysis; type: cell-based
[17] = molecular target: Proto-oncogene tyrosine-protein kinase receptor Ret (Mus musculus) (UniProt P35546); assay: Inhibition of RET signalling pathway in mouse BaF3 cells harboring CCDC6-RET assessed as suppression of SHC activation at 33.3 nM incubated for 4 hrs by Western blot analysis; type: cell-based
[18] = molecular target: Proto-oncogene tyrosine-protein kinase receptor Ret (Mus musculus) (UniProt P35546); assay: Inhibition of RET signalling pathway in mouse BaF3 cells harboring CCDC6-RET-V804M mutant assessed as suppression of SHC activation at 33.3 nM incubated for 4 hrs by Western blot analysis; type: cell-based
[19] = molecular target: Proto-oncogene tyrosine-protein kinase receptor Ret (Mus musculus) (UniProt P35546); assay: Inhibition of RET signalling pathway in mouse BaF3 cells harboring CCDC6-RET-G810C mutant assessed as suppression of SHC activation at 33.3 nM incubated for 4 hrs by Western blot analysis; type: cell-based
[20] = molecular target: Proto-oncogene tyrosine-protein kinase receptor Ret (Mus musculus) (UniProt P35546); assay: Inhibition of RET signalling pathway in mouse BaF3 cells harboring CCDC6-RET-G810C mutant assessed as suppression of RET activation incubated for 4 hrs by Western blot analysis; type: cell-based; conditions: dose <= 300.0 nM
[21] = molecular target: Proto-oncogene tyrosine-protein kinase receptor Ret (Mus musculus) (UniProt P35546); assay: Inhibition of RET signalling pathway in mouse BaF3 cells harboring CCDC6-RET-G810C mutant assessed as suppression of SHC activation incubated for 4 hrs by Western blot analysis; type: cell-based; conditions: dose <= 300.0 nM
[22] = AUC (0 to infinity) in Sprague-Dawley rat at 5 mg/kg, iv; type: ADME, organism-based; set-up: dose 5 mg/kg, route iv; conditions: in vivo
[23] = Cmax in Sprague-Dawley rat at 5 mg/kg, iv; type: ADME, organism-based; set-up: dose 5 mg/kg, route iv; conditions: in vivo
[24] = Half life in Sprague-Dawley rat at 5 mg/kg, iv; type: ADME, organism-based; conditions: in vivo
[25] = AUC (0 to infinity) in fasted Sprague-Dawley rat at 25 mg/kg, po; type: ADME, organism-based; set-up: dose 25 mg/kg, route po; conditions: in vivo
[26] = Cmax in fasted Sprague-Dawley rat at 25 mg/kg, po; type: ADME, organism-based; set-up: dose 25 mg/kg, route po; conditions: in vivo
[27] = Tmax in fasted Sprague-Dawley rat at 25 mg/kg, po; type: ADME, organism-based; conditions: in vivo
[28] = Half life in fasted Sprague-Dawley rat at 25 mg/kg, po; type: ADME, organism-based; conditions: in vivo
[29] = Bioavailability in fasted Sprague-Dawley rat at 25 mg/kg, po; type: ADME, organism-based; conditions: in vivo
BaF3 [30] = assay: Antitumor activity against mouse BaF3 cells expressing CCDC6-RET-V804M xenografted in CB17-SCID mouse model assessed as tumor growth inhibition at 30 mg/kg, po qd via gavage for 14 days relative to control; type: functional; conditions: BaF3, 336 h, time 14 day, read-out: TGI
BaF3 [31] = assay: Antitumor activity against mouse BaF3 cells expressing CCDC6-RET-V804M xenografted in CB17-SCID mouse model assessed as tumor growth inhibition at 60 mg/kg, po qd via gavage for 14 days relative to control; type: functional; conditions: BaF3, 336 h, time 14 day, read-out: TGI
[32] = Toxicity in CB17-SCID mouse model xenografted with mouse BaF3 cells expressing CCDC6-RET-V804M assessed as animal mortality at 30 to 60 mg/kg, po qd via gavage for 14 days; type: organism-based; conditions: in vivo, 336 h, dose 30-60 mg/kg, time 14 day
[33] = Toxicity in CB17-SCID mouse model xenografted with mouse BaF3 cells expressing CCDC6-RET-V804M assessed as body weight loss at 30 to 60 mg/kg, po qd via gavage for 14 days; type: organism-based; conditions: in vivo, 336 h, dose 30-60 mg/kg, time 14 day
BaF3 [34] = assay: cells; conditions: Mus musculus, BaF3, 72 h
Description: Antiproliferative activity against mouse BaF3 cells incubated for 72 hrs by CCK8 assay

Structure (SMILES): CC(C)(c1cc(NC(=O)Nc2ccc(-c3cc(-c4ccc(OCCN5CCOCC5)cc4)[nH]n3)cc2)no1)C(F)(F)F
- Kd [1]: 6.5 nM
- IC50 (BaF3 [2]): 13.6 nM
- IC50 (BaF3 [3]): 12.1 nM
- IC50 (BaF3 [4]): 84.6 nM
- IC50 (BaF3 [5]): 401 nM
- IC50 [6]: 20.9 nM
- IC50 [7]: 18.3 nM
- IC50 [8]: 108 nM
- IC50 [9]: 66.6 nM
- IC50 [10]: 45.1 nM
- IC50 [11]: 16.3 nM
- IC50 [12]: 380 nM
- IC50 [13]: > 1000 nM
- inhibition [14]: Active
- inhibition [15]: Active
- inhibition [16]: Active
- inhibition [17]: Active
- inhibition [18]: Active
- inhibition [19]: Active
- inhibition [20]: Dose-Dependent Effect
- inhibition [21]: Dose-Dependent Effect
- AUC(0-inf) [22]: 32500 ng·h/mL
- Cmax [23]: 9970 ng/mL
- half-life [24]: 528 min
- AUC(0-inf) [25]: 43800 ng·h/mL
- Cmax [26]: 2060 ng/mL
- Tmax [27]: 6.7 h
- half-life [28]: 744 min
- bioavailability [29]: 21.1%
- inhibition in vivo at 30 mg/kg (BaF3 [30]): 83.6%
- inhibition in vivo at 60 mg/kg (BaF3 [31]): 94.6%
- Activity [32]: Non-Toxic
- Activity [33]: Non-Toxic
- IC50 (BaF3 [34]): 3870 nM

Structure (SMILES): CN(C)CCOc1ccc(-c2cc(-c3ccc(NC(=O)Nc4cc(C(C)(C)C)on4)cc3)n[nH]2)cc1
- Kd [1]: 3.2 nM
- IC50 (BaF3 [2]): 7.9 nM
- IC50 (BaF3 [3]): 8.5 nM
- IC50 (BaF3 [4]): 103 nM
- IC50 (BaF3 [5]): 842 nM
- IC50 (BaF3 [34]): 1950 nM

Structure (SMILES): COc1cc(-c2cc(-c3ccc(NC(=O)Nc4cc(C(C)(C)C(F)(F)F)on4)c(F)c3)n[nH]2)ccc1OCCN1CCOCC1
- Kd [1]: 9 nM
- IC50 (BaF3 [2]): 3 nM
- IC50 (BaF3 [3]): 3.9 nM
- IC50 (BaF3 [4]): 118 nM
- IC50 (BaF3 [5]): 319 nM
- IC50 (BaF3 [34]): 373 nM

Structure (SMILES): CC(C)(C)c1cc(NC(=O)Nc2ccc(-c3cc(-c4ccc(OCCN5CCOCC5)cc4Cl)[nH]n3)cc2)no1
- Kd [1]: 11 nM
- IC50 (BaF3 [2]): 36.2 nM
- IC50 (BaF3 [3]): 35.5 nM
- IC50 (BaF3 [4]): 533 nM
- IC50 (BaF3 [5]): 626 nM
- IC50 (BaF3 [34]): > 10000 nM

Structure (SMILES): CC(C)(C)c1cc(NC(=O)Nc2ccc(-c3c[nH]c(-c4ccc(OCCN5CCOCC5)cc4Cl)n3)cc2)no1
- Kd [1]: 31.5 nM
- IC50 (BaF3 [2]): 404 nM
- IC50 (BaF3 [3]): 491 nM
- IC50 (BaF3 [4]): 802 nM
- IC50 (BaF3 [5]): 716 nM
- IC50 (BaF3 [34]): 772 nM

The next lines start with the values.

- Kd [1]: 4.3 nM
- IC50 (BaF3 [2]): 9.3 nM
- IC50 (BaF3 [3]): 9.4 nM
- IC50 (BaF3 [4]): 89.8 nM
- IC50 (BaF3 [5]): 549 nM
- IC50 [6]: 16.1 nM
- IC50 [7]: 15.4 nM
- IC50 [8]: 33 nM
- IC50 [9]: 9 nM
- IC50 [10]: 21.6 nM
- IC50 [11]: 24.4 nM
- IC50 [12]: 331 nM
- IC50 [13]: > 1000 nM
- inhibition [14]: Active
- inhibition [15]: Active
- inhibition [16]: Active
- inhibition [17]: Active
- inhibition [18]: Active
- inhibition [19]: Active
- inhibition [20]: Dose-Dependent Effect
- inhibition [21]: Dose-Dependent Effect
- AUC(0-inf) [22]: 15600 ng·h/mL
- Cmax [23]: 10700 ng/mL
- half-life [24]: 198 min
- AUC(0-inf) [25]: 20500 ng·h/mL
- Cmax [26]: 1250 ng/mL
- Tmax [27]: 6 h
- half-life [28]: 414 min
- bioavailability [29]: 23.6%
- IC50 (BaF3 [34]): 1230 nM
Structure (SMILES): CC(C)(C)c1cc(NC(=O)Nc2ccc(-c3cc(-c4ccc(OCCN5CCOCC5)cc4)[nH]n3)cc2)no1

- Kd [1]: 32 nM
- IC50 (BaF3 [2]): 387 nM
- IC50 (BaF3 [3]): 437 nM
- IC50 (BaF3 [4]): 1130 nM
- IC50 (BaF3 [5]): 984 nM
- IC50 (BaF3 [34]): 625 nM
Structure (SMILES): COc1cc(NC(=O)Nc2cc(C(C)(C)C)on2)ccc1-c1cc(-c2ccc(OCCN3CCOCC3)cc2)[nH]n1

- Kd [1]: 18 nM
- IC50 (BaF3 [2]): 35.6 nM
- IC50 (BaF3 [3]): 33.9 nM
- IC50 (BaF3 [4]): 196 nM
- IC50 (BaF3 [5]): 2020 nM
- IC50 (BaF3 [34]): > 10000 nM
Structure (SMILES): Cc1cc(NC(=O)Nc2cc(C(C)(C)C)on2)ccc1-c1cc(-c2ccc(OCCN3CCOCC3)cc2)[nH]n1

- Kd [1]: 16 nM
- IC50 (BaF3 [2]): 165 nM
- IC50 (BaF3 [3]): 209 nM
- IC50 (BaF3 [4]): 410 nM
- IC50 (BaF3 [5]): 1010 nM
- IC50 (BaF3 [34]): 1050 nM
Structure (SMILES): CC(C)(C)c1cc(NC(=O)Nc2ccc(-c3cc(-c4ccc(OCCN5CCOCC5)cc4)[nH]n3)c(Cl)c2)no1

- Kd [1]: 15.5 nM
- IC50 (BaF3 [2]): 67 nM
- IC50 (BaF3 [3]): 62 nM
- IC50 (BaF3 [4]): 606 nM
- IC50 (BaF3 [5]): 1280 nM
- IC50 (BaF3 [34]): 1210 nM
Structure (SMILES): CC(C)(C)c1cc(NC(=O)Nc2ccc(-c3cc(-c4ccc(OCCN5CCOCC5)cc4Br)[nH]n3)cc2)no1
